Assay results as given in PubChem BioAssay (NCI).
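At the GI50, growth is halved. TGI denotes the concentration required for complete inhibition of growth.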

Key:
Experiment in all cases: inhibition of tumour cell growth, NCI panel, 384-well format
DU-145 prostate = system: DU-145 prostate
MDA-MB-468 breast = system: MDA-MB-468 breast
UO-31 renal = system: UO-31 renal
NCI-H226 lung = system: NCI-H226 lung
SF-539 CNS = system: SF-539 CNS
OVCAR-3 ovarian = system: OVCAR-3 ovarian
SK-MEL-5 melanoma = system: SK-MEL-5 melanoma
HOP-62 NSCLC = system: HOP-62 NSCLC
SR leukemia = system: SR leukemia
U251 glioblastoma = system: U251 glioblastoma
SW-620 colon = system: SW-620 colon
UACC-257 melanoma = system: UACC-257 melanoma
MOLT-4 leukemia = system: MOLT-4 leukemia
LOX IMVI melanoma = system: LOX IMVI melanoma
HOP-92 NSCLC = system: HOP-92 NSCLC
HT29 colon = system: HT29 colon
ACHN renal = system: ACHN renal
HCC-2998 colon = system: HCC-2998 colon
SK-MEL-28 melanoma = system: SK-MEL-28 melanoma
SN12C renal = system: SN12C renal
HCT-116 colon = system: HCT-116 colon
KM12 colon = system: KM12 colon
NCI-H23 lung = system: NCI-H23 lung
SNB-75 CNS = system: SNB-75 CNS
SF-295 CNS = system: SF-295 CNS
SNB-19 CNS = system: SNB-19 CNS
NCI/ADR-RES ovarian = system: NCI/ADR-RES ovarian
786-0 renal = system: 786-0 renal
M14 melanoma = system: M14 melanoma
HL-60(TB) leukemia = system: HL-60(TB) leukemia
NCI-H322M lung = system: NCI-H322M lung
T-47D breast = system: T-47D breast
MALME-3M melanoma = system: MALME-3M melanoma
OVCAR-4 ovarian = system: OVCAR-4 ovarian
PC-3 prostate = system: PC-3 prostate
BT-549 breast = system: BT-549 breast
RPMI-8226 leukemia = system: RPMI-8226 leukemia
MCF7 breast = system: MCF7 breast
TK-10 renal = system: TK-10 renal
EKVX NSCLC = system: EKVX NSCLC
NCI-H522 lung = system: NCI-H522 lung
MDA-MB-231 breast = system: MDA-MB-231 breast
K-562 leukemia = system: K-562 leukemia
A498 renal = system: A498 renal
RXF 393 renal = system: RXF 393 renal
CAKI-1 renal = system: CAKI-1 renal
UACC-62 melanoma = system: UACC-62 melanoma

CS(=O)(=O)c1ccc(-c2cnc(NCc3ccco3)n3cnnc23)cc1
GI50 (DU-145 prostate): > 100 µM | TGI (DU-145 prostate): > 100 µM | GI50 (MDA-MB-468 breast): 17.3 µM | TGI (MDA-MB-468 breast): 49.3 µM | GI50 (UO-31 renal): > 100 µM | TGI (UO-31 renal): > 100 µM | GI50 (NCI-H226 lung): > 100 µM | TGI (NCI-H226 lung): > 100 µM | GI50 (SF-539 CNS): > 100 µM | TGI (SF-539 CNS): > 100 µM | GI50 (OVCAR-3 ovarian): > 100 µM | TGI (OVCAR-3 ovarian): > 100 µM | GI50 (SK-MEL-5 melanoma): 37.2 µM | TGI (SK-MEL-5 melanoma): > 100 µM | GI50 (HOP-62 NSCLC): > 100 µM | TGI (HOP-62 NSCLC): > 100 µM | GI50 (SR leukemia): > 100 µM | TGI (SR leukemia): > 100 µM | GI50 (U251 glioblastoma): > 100 µM | TGI (U251 glioblastoma): > 100 µM | GI50 (SW-620 colon): > 100 µM | TGI (SW-620 colon): > 100 µM | GI50 (UACC-257 melanoma): 52.1 µM | TGI (UACC-257 melanoma): > 100 µM | GI50 (MOLT-4 leukemia): 49 µM | TGI (MOLT-4 leukemia): > 100 µM | GI50 (LOX IMVI melanoma): 52.8 µM | TGI (LOX IMVI melanoma): > 100 µM | GI50 (HOP-92 NSCLC): > 55.1 µM | TGI (HOP-92 NSCLC): > 100 µM | GI50 (HT29 colon): 61.3 µM | TGI (HT29 colon): > 100 µM | GI50 (ACHN renal): > 100 µM | TGI (ACHN renal): > 100 µM | GI50 (HCC-2998 colon): > 100 µM | TGI (HCC-2998 colon): > 100 µM | GI50 (SK-MEL-28 melanoma): 30.3 µM | TGI (SK-MEL-28 melanoma): > 100 µM | GI50 (SN12C renal): > 100 µM | TGI (SN12C renal): > 100 µM | GI50 (HCT-116 colon): > 100 µM | TGI (HCT-116 colon): > 100 µM | GI50 (KM12 colon): > 100 µM | TGI (KM12 colon): > 100 µM | GI50 (NCI-H23 lung): > 100 µM | TGI (NCI-H23 lung): > 100 µM | GI50 (SNB-75 CNS): > 100 µM | TGI (SNB-75 CNS): > 100 µM | GI50 (SF-295 CNS): > 100 µM | TGI (SF-295 CNS): > 100 µM | GI50 (SNB-19 CNS): > 100 µM | TGI (SNB-19 CNS): > 100 µM | GI50 (NCI/ADR-RES ovarian): > 100 µM | TGI (NCI/ADR-RES ovarian): > 100 µM | GI50 ([…]-0 renal): > 100 µM | TGI (786-0 renal): > 100 µM | GI50 (M14 melanoma): 29.6 µM | TGI (M14 melanoma): > 100 µM | GI50 (HL-60(TB) leukemia): 72.2 µM | TGI (HL-60(TB) leukemia): > 100 µM | GI50 (NCI-H322M lung): > 100 µM | TGI (NCI-H322M lung): > 100 µM | GI50 (T-47D breast): 66.3 µM | TGI (T-47D breast): > 100 µM | GI50 (MALME-3M melanoma): 16.9 µM | TGI (MALME-3M melanoma): 45.3 µM | GI50 (OVCAR-4 ovarian): > 100 µM | TGI (OVCAR-4 ovarian): > 100 µM | GI50 (PC-3 prostate): > 100 µM | TGI (PC-3 prostate): > 100 µM | GI50 (BT-549 breast): > 100 µM | TGI (BT-549 breast): > 100 µM | GI50 (RPMI-8226 leukemia): 6.1 µM | TGI (RPMI-8226 leukemia): > 33.7 µM | GI50 (MCF7 breast): > 100 µM | TGI (MCF7 breast): > 100 µM | GI50 (TK-10 renal): > 100 µM | TGI (TK-10 renal): > 100 µM | GI50 (EKVX NSCLC): > 100 µM | TGI (EKVX NSCLC): > 100 µM | GI50 (NCI-H522 lung): > 100 µM | TGI (NCI-H522 lung): > 100 µM | GI50 (MDA-MB-231 breast): > 100 µM | TGI (MDA-MB-231 breast): > 100 µM | GI50 (K-562 leukemia): > 95.2 µM | TGI (K-562 leukemia): > 100 µM | GI50 (A498 renal): > 100 µM | TGI (A498 renal): > 100 µM | GI50 (RXF 393 renal): > 76.7 µM | TGI (RXF 393 renal): > 100 µM | GI50 (CAKI-1 renal): > 100 µM | TGI (CAKI-1 renal): > 100 µM | GI50 (UACC-62 melanoma): 27.1 µM | TGI (UACC-62 melanoma): > 100 µM
